According to article PMC6544370 (Nature, 2019):

Molecular target: Lp-CdnE02 (CD-NTase057) (Legionella pneumophila, UniProt P0DSP3)
Sequence (P0DSP3 whole entry, looked up): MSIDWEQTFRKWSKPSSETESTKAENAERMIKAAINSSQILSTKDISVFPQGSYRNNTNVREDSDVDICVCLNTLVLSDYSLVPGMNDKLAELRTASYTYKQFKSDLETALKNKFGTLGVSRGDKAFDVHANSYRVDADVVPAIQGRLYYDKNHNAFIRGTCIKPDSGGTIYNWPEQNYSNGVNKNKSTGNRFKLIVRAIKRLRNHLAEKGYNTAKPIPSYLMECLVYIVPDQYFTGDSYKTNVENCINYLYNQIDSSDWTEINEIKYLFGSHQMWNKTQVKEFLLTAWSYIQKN

## O=c1ccn([C@@H]2O[C@H](COP(=O)(O)OP(=O)(O)OP(=O)(O)O)[C@@H](O)[C@H]2O)c(=O)[nH]1 [UTP]
  radiolabelled NTP, TLC and mass spectrometry: Lp-CdnE02 synthesized predominantly c-di-UMP
